Measurements reported in patent US20100331338A1, “Glucokinase Activators” (Merck Patent GMBH, priority 2008, published 2010).

Target: T1, hGK (Homo sapiens, UniProt P35557)
T1 sequence (P35557 1-465): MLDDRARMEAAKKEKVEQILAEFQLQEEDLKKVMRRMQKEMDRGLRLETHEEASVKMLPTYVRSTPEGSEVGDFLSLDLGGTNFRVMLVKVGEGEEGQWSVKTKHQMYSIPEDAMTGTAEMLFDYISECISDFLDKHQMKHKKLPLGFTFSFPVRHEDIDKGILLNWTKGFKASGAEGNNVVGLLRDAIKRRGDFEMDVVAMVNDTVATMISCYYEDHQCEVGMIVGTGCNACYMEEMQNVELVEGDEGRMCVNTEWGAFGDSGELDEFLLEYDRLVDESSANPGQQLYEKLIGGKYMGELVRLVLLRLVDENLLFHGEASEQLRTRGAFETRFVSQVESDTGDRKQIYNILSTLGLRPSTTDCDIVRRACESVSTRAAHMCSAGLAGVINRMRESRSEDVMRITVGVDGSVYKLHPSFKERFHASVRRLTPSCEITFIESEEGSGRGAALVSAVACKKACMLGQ
Experiment: Glucokinase Activation Screening Assay (coupled enzyme assay with PK/LDH)
Format: biochemical
Conditions: 2 mM glucose; for hGK fold activation at 30 μM: fold activation at 30 μM compound
Procedure: Glucokinase Activation Screening Assay
GK activity (human or rat enzyme) is measured by a coupled enzyme assay using pyruvate kinase (PK) and lactate dehydrogenase (LDH) as coupling enzymes. GK activity is calculated from the decline in NADH monitored photometrically with a microtiter plate (MTP) reader at 340 nm.
For screening purposes, the GK assay is routinely run in a 384-MTP format, in a total volume of 33 μl/well. 10 μl of the ATP-regeneration solution (in HEPES-buffer*, pH 7.0, 6.73 U/ml pyruvate kinase, 6.8 U/ml lactate dehydrogenase) and 10 μl of the glucokinase-/glucose solution (15 μg/ml, 6.6 mM glucose in HEPES-buffer*, pH 7.0; the concentration of the glucose stock-solution was 660 mM in Millipore H2O) were mixed together with […] of a 10% DMSO solution (in HEPES-buffer*, pH 7.0) containing 3.3-fold the amounts of the compounds to achieve final compound concentrations in the range between 1 nM to 30 μM (sometimes 300 μM) in the assay solution (s. below). The solutions were mixed for 5 sec, and after a centrifugation at 243×g for 5 min, the solutions were preincubated for 25 min at room temperature.
The reaction was started by the addition of 10 μl of the NADH-/ATP-solution (4.29 mM NADH, 4.95 mM ATP, in HEPES-buffer*). The MTP was shaken for 5 sec., and then, the absorbance at 340 nm was monitored continuously in a MTP-reader (TECAN Spectro fluor plus) for the next 27 min (with a MTP-cycling time of 199 sec.). The final concentrations of the various components were as follows: 49.5 mM Hepes, pH 7.0, 1.49 mM PEP,1,3 mM NADH, 49.5 mM KCl, 4.96 mM MgCl2, 1.5 mM Mg-ATP, 1.98 mM DTT, 2.04 U/ml pyruvate kinase, 2.06 U/ml lactate-dehydrogenase, 0.91% DMSO, 0.15 μg/well glucokinase, and test compounds in the range between 1 nM and 300 μM.
The change in the optical density (ΔOD340 nm) in the presence of the compound was expressed relative to the ΔOD340 nm, ctrl of the control incubation (in the presence of 2 mM glucose and 0.91% DMSO), taking into account the optical density of the blank sample (incubation in the absence of 2 mM glucose). For the determination of the half maximal effective concentration (EC50), the %-Ctrl-values were plotted in a semi-logarithmic graph against the conc. of the compound of interest. The data points were fitted to a sigmoid curve function (f(x)=((%-Ctrlmax%-Ctrlmin)/(1−(EC50/x**^n(Hill)))+%-Ctrlmin)) by a non-linear regression analysis.
* Hepes-buffer (50 mM Hepes, pH 7.0, 5 mM MgCl2, 50 mM KCl, 1.5 mM PEP, 0.1% BSA). DTT was added to the Hepes-buffer from a 200× stock solution (in Millipore H2O) freshly each day. The final concentration of DTT in the Hepes-buffer is 2 mM.

| SMILES | hGK fold activation at 30 μM | EC50 |
| --- | --- | --- |
| Cc1csc(C(=O)Nc2nccs2)c1 [Example 4, 4-Methyl-thiophene-2-carboxylic acid thiazol-2-ylamide] | 3.4 |  |
| CS(=O)(=O)c1cc(C(=O)Nc2nccs2)sc1Cl [Example 5, 5-Chloro-4-methanesulfonyl-thiophene-2-carboxylic acid thiazol-2-ylamide] | 1.9 | 5.9 µM |
| O=C(Nc1nccs1)c1csc2ccccc12 [Example 6, Benzo[b]thiophene-3-carboxylic acid thiazol-2-ylamide] | 1.2 |  |
| O=C(Nc1nccs1)c1csc2c1CCCC2 [Example 7, 4,5,6,7-Tetrahydro-benzo[b]thiophene-3-carboxylic acid thiazol-2-ylamide] | 1.2 |  |
| CC1CCc2c(C(=O)Nc3nccs3)csc2C1 (centres unmarked) [Example 8, 6-Methyl-4,5,6,7-tetrahydro-benzo[b]thiophene-3-carboxylic acid thiazol-2-ylamide] | 1.6 |  |
| CCCc1cc(C(=O)Nc2nc(C)cs2)cs1 [Example 10, 5-Propyl-thiophene-3-carboxylic acid(4-methyl-thiazol-2-yl)-amide] | 5.2 | 9.3 µM |
| CCCc1cc(C(=O)Nc2nc(CC(=O)OCC)cs2)cs1 [Example 11, {2-[(5-Propyl-thiophene-3-carbonyl)-amino]thiazol-4-yl}-acetic acid ethyl ester] | 4.9 | 15 µM |
| CCCc1cc(C(=O)Nc2nc(C)c(C(=O)OCC)s2)cs1 [Example 13, 4-Methyl-2-[(5-propyl-thiophene-3-carbonyl)-amino]-thiazole-5-carboxylic acid ethyl ester] | 1.5 |  |
| CCCc1cc(C(=O)Nc2ncc[nH]2)cs1 [Example 14, 5-Propyl-thiophene-3-carboxylic acid(1H-imidazol-2-yl)-amide] | 2.1 |  |
| Cc1csc(C(=O)Nc2cc(C)n(Cc3ccccn3)n2)c1 [Example 16, 4-Methyl-thiophene-2-carboxylic acid(5-methyl-1-pyridin-2-ylmethyl-1H-pyrazol-3-yl)-amide] | 1.3 |  |
| CS(=O)(=O)c1csc(C(=O)Nc2nccs2)c1Cl [Example 18, 3-Chloro-4-methanesulfonyl-thiophene-2-carboxylic acid thiazol-2-ylamide] | 1.2 |  |
| O=C(Nc1nccs1)c1csc([N+](=O)[O-])c1 [Example 20, 5-Nitro-thiophene-3-carboxylic acid thiazol-2-ylamide] | 1.4 |  |
| Cc1ccc(C(=O)Nc2nccs2)s1 [Example 26, 5-Methyl-thiophene-2-carboxylic acid thiazol-2-ylamide] | 1.5 |  |
| CCCc1cc(C(=O)Nc2ccon2)cs1 [Example 28, 5-Propyl-thiophene-3-carboxylic acid isoxazol-3-ylamide] | 2 |  |
| CCCc1cc(C(=O)Nc2ccn(C)n2)cs1 [Example 29, 5-Propyl-thiophene-3-carboxylic acid(1-methyl-1H-pyrazol-3-yl)-amide] | 5.5 |  |
| CCCc1cc(C(=O)Nc2cc(Cl)ccn2)cs1 [Example 31, 5-Propyl-thiophene-3-carboxylic acid(4-chloro-pyridin-2-yl)-amide] | 2.7 |  |
| CCCc1cc(C(=O)Nc2ccncn2)cs1 [Example 36, 5-Propyl-thiophene-3-carboxylic acid pyrimidin-4-ylamide] | 2.7 |  |
| CCCc1cc(C(=O)Nc2ccn(Cc3ccccn3)n2)cs1 [Example 37, 5-Propyl-thiophene-3-carboxylic acid(1-pyridin-2-ylmethyl-1H-pyrazol-3-yl)-amide] | 3.6 |  |
| CCCc1cc(C(=O)Nc2cc[nH]n2)cs1 [Example 38, 5-Propyl-thiophene-3-carboxylic acid(1H-pyrazol-3-yl)-amide] | 2.7 |  |
| CCCc1cc(C(=O)Nc2cc(C)ccn2)cs1 [Example 39, 5-Propyl-thiophene-3-carboxylic acid(4-methyl-pyridin-2-yl)-amide] | 2.4 |  |
| CCOC(=O)Cn1ccc(NC(=O)c2cc(COC)cs2)n1 [Example 40, {3-[(4-Methoxymethyl-thiophene-2-carbonyl)-amino]-pyrazol-1-yl}-acetic acid ethyl ester] | 2.6 | 4.2 µM |
| CCCc1cc(C(=O)Nc2ccccn2)cs1 [Example 41, 5-Propyl-thiophene-3-carboxylic acid pyridin-2-ylamide] | 2.5 |  |
| COCc1csc(C(=O)Nc2cc(C)n(CC(=O)O)n2)c1 [Example 43, {3-[(4-Methoxymethyl-thiophene-2-carbonyl)-amino]-5-methyl-pyrazol-1-yl}-acetic acid] | 1.2 |  |
| COCc1csc(C(=O)Nc2ccn(CC(=O)O)n2)c1 [Example 44, {3-[(4-Methoxymethyl-thiophene-2-carbonyl)-amino]-pyrazol-1-yl}-acetic acid] | 1.7 |  |

Now from value to compound:

| hGK fold activation at 30 μM | EC50 | SMILES |
| --- | --- | --- |
| 1.3 |  | O=C(Nc1nccs1)c1ccsc1 [Example 2, Thiophene-3-carboxylic acid thiazol-2-ylamide] |
| 1.3 |  | O=C(Nc1nccs1)c1cccs1 [Example 3, Thiophene-2-carboxylic acid thiazol-2-ylamide] |
| 2.6 | 5 µM | CCCc1cc(C(=O)Nc2nc(C(=O)OCC)cs2)cs1 [Example 12, 2-[(5-Propyl-thiophene-3-carbonyl)-amino]-thiazole-4-carboxylic acid ethyl ester] |
| 3 |  | COCc1csc(C(=O)Nc2ccn(Cc3ccccn3)n2)c1 [Example 15, 4-Methoxymethyl-thiophene-2-carboxylic acid(1-pyridin-2-ylmethyl-1H-pyrazol-3-yl)-amide] |
| 1.8 |  | COCc1csc(C(=O)Nc2cc(C)n(Cc3ccccn3)n2)c1 [Example 17, 4-Methoxymethyl-thiophene-2-carboxylic acid(5-methyl-1-pyridin-2-ylmethyl-1H-pyrazol-3-yl)-amide] |
| 1.5 |  | O=C(Nc1nccs1)c1cc(-c2ccc(Cl)cc2)cs1 [Example 19, 4-(4-Chloro-phenyl)-thiophene-2-carboxylic acid thiazol-2-ylamide] |
| 2.4 |  | CCCc1cc(C(=O)Nc2nc3ccccc3[nH]2)cs1 [Example 21, 5-Propyl-thiophene-3-carboxylic acid(1H-benzoimidazol-2-yl)-amide] |
| 2.4 |  | CCCc1cc(C(=O)Nc2nncs2)cs1 [Example 24, 5-Propyl-thiophene-3-carboxylic acid[1,3,4]thiadiazol-2-ylamide] |
| 2.1 |  | CCCc1cc(C(=O)Nc2ccc(F)cn2)cs1 [Example 27, 5-Propyl-thiophene-3-carboxylic acid(5-fluoro-pyridin-2-yl)-amide] |
| 9.4 |  | CCCc1sc(C(=O)Nc2nccs2)cc1CC [Example 33, 4-Ethyl-5-propyl-thiophene-2-carboxylic acid thiazol-2-ylamide] |
| 3.3 | 9 µM | CCCc1cc(C(=O)Nc2nc(C(=O)O)cs2)cs1 [Example 42, 2-[(5-Propyl-thiophene-3-carbonyl)-amino]-thiazole-4-carboxylic acid] |
